{"source": "patent US8486916B2", "about": "“Medicine, food and drink or feed containing sphingomyelin” (Megmilk Snow Brand Co., Ltd., priority 2005, dated 2013)", "key": {"[1]": {"system": "lymphocytes from human milk", "test": "Test on promotion of secretory IgA production", "type": "cell-based", "conditions": "3 μg added to 3 ml Petri dish; after 7 days", "protocol": "5 ml of aseptically collected human milk was diluted twice with a 10 mM phosphate-buffered saline (PBS, pH 7.2) containing 150 mM NaCl and then layered in a test tube containing 5 ml of a separation solution (mixed solution of 33.4% Conray 400 (manufactured by Daiichi Pharmaceutical Co., Ltd.) and 9% Ficoll (manufactured by Pharmacia) at a ratio of 5:12). After centrifugation at 400×G for 30 minutes, the intermediate layer in which lymphocytes were gathered was collected with a Pasteur pipette. The lymphocytes were dispersed and washed in 10 ml of PBS and then centrifuged at 150×G for 10 minutes. This washing procedure was repeated three times. Then, 12 ml of an RPMI-1640 medium containing insulin (10 μg/ml) and transferrin (5 μg/ml) was added thereto, and the mixture was dispensed in an amount of 3 ml/Petri dish into 3 Petri dishes (A; […]"}, "[2]": {"system": "enteropathogenic E. coli O-157", "test": "Test I on prevention of enteropathogenic E. coli O-157 infection", "type": "in vivo", "conditions": "BALB/c germ-free mice, 5 mg/day oral", "protocol": "Test I on prevention of enteropathogenic E. coli O-157 infection\nThe intake of sphingomyelin was 5 mg/day. On the 3rd day from the start of taking, the mice were infected with enteropathogenic E. coli O-157 by oral administration at a dose of 8.5×10^6 cfu/mouse. After infection, the mice were also allowed to orally take sphingomyelin on a daily basis. […] The survival rate of the […] depending on the number of days after the administration of enteropathogenic E. coli O-157 is shown in Table 7. As is evident from the results of Table 7, the survival rate of the germ-free mice was enhanced by the administration of sphingomyelin."}}}
{"substance": "sphingomyelin", "values": [{"measurement": "IgA content in the culture solution", "setting": "[1]", "value": 3.11, "unit": "µg/mL"}, {"measurement": "Survival rate", "setting": "[2]; 0 days after administration of E. coli", "value": 100, "unit": "%"}, {"measurement": "Survival rate", "setting": "[2]; 2 days after administration of E. coli", "value": 100, "unit": "%"}, {"measurement": "Survival rate", "setting": "[2]; 4 days after administration of E. coli", "value": 100, "unit": "%"}, {"measurement": "Survival rate", "setting": "[2]; 6 days after administration of E. coli", "value": 80, "unit": "%"}, {"measurement": "Survival rate", "setting": "[2]; 8 days after administration of E. coli", "value": 70, "unit": "%"}]}
